The values below come from ChEMBL document CHEMBL1156536, “Thiocarbamates as non-nucleoside HIV-1 reverse transcriptase inhibitors. Part 2: Parallel synthesis, molecular modelling and structure-activity relationship studies on analogues of O-(2-phenylethyl)-N-phenylthiocarbamate” (Bioorg Med Chem, 2008).

Series [1] concerns Human immunodeficiency virus 1. In words: Reduction of HIV1 p24 antigen level in virus infected C8166 cells. In kind it is functional. To be noted: Human immunodeficiency virus 1, C8166.
Series [2] is described as follows: Cytotoxicity against mock-infected human MT4 cells by MTT assay. In kind it is cell-based. On the technique in general: Tetrazolium dyes change colour on reduction, which living cells bring about.
Series [3] can be described thus: Selectivity index, ratio of CC50 for human MT4 cells to EC50 for HIV1. It counts as toxicity, cell-based. To be noted: read-out: Ratio CC50/EC50.
Series [4] has as its system Human immunodeficiency virus 1. In words: Antiviral activity against HIV1 in human MT4 cells assessed as inhibition of virus-induced cytopathogenicity by MTT assay. It counts as functional, organism-based. To be noted: Human immunodeficiency virus 1, MT4. A general note: Protection from cytopathic effect is a common read-out in antiviral testing.
The subject of series [5] is Human immunodeficiency virus 1. In words: Antiviral activity against HIV1 with reverse transcriptase Y181C mutation in human MT4 cells assessed as inhibition of virus-induced cytopathogenicity by MTT assay. It counts as functional, organism-based. To be noted: Human immunodeficiency virus 1, MT4.
The subject of series [6] is Human immunodeficiency virus 1. The experiment in a line: Antiviral activity against HIV1 with reverse transcriptase K103N/Y181C mutation in human MT4 cells assessed as inhibition of virus-induced cytopathogenicity by MTT assay. It counts as functional, organism-based. To be noted: for EC50: Human immunodeficiency virus 1, MT4.
Series [7] has as its target Human immunodeficiency virus type 1 reverse transcriptase (Human immunodeficiency virus 1, UniProt Q72547). In words: Inhibition of HIV1 recombinant wild type reverse transcriptase.

The term EC90 denotes the concentration at which the effect reaches the 90% level. A low value points to greater potency. A word on the CC50: it is the concentration giving 50% cytotoxicity. Low readings indicate greater toxicity to the cells, high ones lower toxicity to the cells. One may read the EC50 as the concentration at which the effect is half-maximal. One may read the IC50 as the concentration that gives 50% inhibition.

Calls of active or inactive are those of the source. The calls are words filed in the database; no cut-off is given here. Where only a bound is given, the exact number is not on record here.

As for `S=C(NCCc1ccccn1)Nc1ccc(Br)cn1` [TROVIRDINE], in series [1], the 90% effect level (EC90) was put at 0.015 µM. This compound also returned a CC50 in series [2] of 60 µM. In addition, the selectivity ratio in series [3] came out at 3000.
In series [2], `COc1cccc(CCOC(=S)Nc2ccc([N+](=O)[O-])cc2)c1` showed a CC50 above 100 µM. For the same compound, the EC50 in series [4] worked out at 0.2 µM; in series [5], 8.3 µM. Also, the selectivity ratio in series [3] was above 500. The result in series [6] was inactive.
Taken in the same sequence, the figures for `COc1ccccc1CCOC(=S)Nc1ccc(Cl)cc1` were 43 µM, 0.07 µM, 8.9 µM, 614 and “inactive”.
In series [2], `Cc1ccc(CCOC(=S)Nc2ccc([N+](=O)[O-])cc2)cc1` gave a CC50 above 100 µM. For the same compound, the EC50 was 0.3 µM in series [4], 8.6 µM in series [5] and 92 µM in series [6]. Also, the selectivity ratio in series [3] was above 333.
In series [2], `Cc1cccc(CCOC(=S)Nc2ccc([N+](=O)[O-])cc2)c1` returned a CC50 of 96 µM. Also, the EC50 in series [4] is 0.5 µM; in series [5], 8.9 µM; in series [6], 69 µM. The selectivity ratio in series [3] was found to be 192.
`CC(COC(=S)Nc1ccc([N+](=O)[O-])cc1)c1ccccc1` (racemic) returned an EC90 in series [1] of 0.6 µM. This compound also displayed a CC50 in series [2] above 100 µM. Also, the EC50 in series [4] came out at 0.6 µM. Also, the selectivity ratio in series [3] was above 167.
As to `O=C1Nc2ccc(Cl)cc2C(C#CC2CC2)(C(F)(F)F)O1` (single isomer, unassigned) [EFAVIRENZ], the half-maximal effective concentration (EC50) in series [6] was found to be 0.04 µM.
`COc1cccc(CCOC(=S)Nc2ccc(Cl)cc2)c1` had a CC50 in series [2] of 94 µM. The EC50 in series [4] was determined as 0.08 µM; in series [5], 12 µM; in series [6], 86 µM. Besides, the selectivity ratio in series [3] was 1180.
Take `CC(COC(=S)Nc1ccc(Cl)cc1)c1ccccc1` (racemic): the CC50 in series [2] came out at 30 µM. Also, the EC50 in series [4] was 0.2 µM; in series [5] it was 12 µM. Besides, in series [3], the selectivity ratio is 150. Also, the outcome in series [6] was inactive.
`Oc1ccccc1OCCOC(=S)Nc1ccccc1` gave a CC50 in series [2] above 100 µM. Moreover, the EC50 in series [4] turned out to be 19 µM. The selectivity ratio in series [3] was above 5.2.
The compound `Cc1ccc(NC(=S)OC(C)COc2ccccc2)cc1` (racemic) had a CC50 in series [2] of 24 µM. For the same compound, the EC50 in series [4] came out at 1.2 µM. Moreover, the IC50 in series [7] is 1.4 µM. Moreover, the selectivity ratio in series [3] was 20.
As for `S=C(Nc1ccccc1)OCC1(c2ccccc2)CC1`, in series [2], the midpoint of cytotoxicity, the CC50, lay at 51 µM. Further, in series [4], the EC50 came out at 7 µM. In addition, the selectivity ratio in series [3] turned out to be 7.3.
Taken in the same sequence, the figures for `COc1ccccc1CCOC(=S)Nc1ccc(Cl)c(Cl)c1` were above 45 µM, 0.3 µM and above 150.
In series [2], `CC(COc1ccccc1)OC(=S)Nc1ccccc1` (racemic) came in with a CC50 above 100 µM. Moreover, the EC50 in series [4] came out at 2 µM. Also, in series [7], the half-maximal inhibitory concentration (IC50) came out at 1 µM. Also, the selectivity ratio in series [3] is above 50.
In turn, `CC(OC(=S)Nc1ccc([N+](=O)[O-])cc1)c1ccc(Cl)cc1` (racemic) displayed a CC50 in series [2] above 100 µM. The EC50 in series [4] came out at 7 µM. Further, in series [3], the selectivity ratio is above 14.
In turn, `Cc1ccc(NC(=S)OCCOc2ccccc2)cc1` registered a CC50 in series [2] of 74 µM. Further, the EC50 in series [4] was found to be 10 µM. For the same compound, the selectivity ratio in series [3] came to 7.4.
The matching figures for `CC(COC(=S)Nc1ccc(Cl)c(Cl)c1)c1ccccc1` (racemic): 44 µM, 0.3 µM and 147.
`Cc1ccc(NC(=S)OC(C)COc2ccccc2)cc1Cl` (racemic) showed a CC50 in series [2] above 100 µM. Moreover, the EC50 in series [4] turned out to be 4 µM. The selectivity ratio in series [3] is above 25.
